Data reported in ChEMBL document CHEMBL4316583, “In Vitro and in Vivo Antitumor Effects of Plant-Derived Miliusanes and Their Induction of Cellular Senescence” (J Med Chem, 2019).
pIC50: −log10 of the molar value. Active and inactive are the calls of the source. The rule behind the calls is not given here.

Assays:
HeLa [1] = experiment: Antitumor activity against human HeLa cells xenografted in nude BALB/c mouse assessed as suppression of excised tumor size at 30 mg/kg, ip administered every other day for 21 days and observed for 6 days before sacrifice relative to control; type: functional
HCT-116 [2] = experiment: Induction of cellular senescence in human HCT116 cells assessed as up-regulation of p21 protein expression at 0.22 uM after 48 hrs in presence of p21 siRNA by SA-beta-gal-staining based Western blot analysis; type: functional, cell-based
HCT-116 [3] = experiment: Induction of cellular senescence in human HCT116 cells assessed as up-regulation of CDKN1A gene at 0.22 uM after 48 hrs by qPCR assay; type: functional, cell-based
HT-29 = experiment: Growth inhibition human HT-29 cells after 72 hrs by MTS assay; type: functional, cell-based
[4] = Toxicity in nude BALB/c mouse xenografted with human A375 cells assessed as body weight loss at 15 mg/kg, ip administered every other day for 23 days; type: organism-based; details: in vivo, 552 h
HCT-116 [5] = experiment: Antiproliferative activity against human HCT116 cells xenografted in BALB/c mouse at 20 mg/kg, administered every other day for 3 weeks by Ki67-staining based assay; type: functional, organism-based
[6] = Toxicity in nude BALB/c mouse xenografted with human HCT116 cells assessed as body weight loss at 10 to 20 mg/kg, ip measured on day 10 and 11; type: organism-based; details: in vivo
HCT-116 [7] = experiment: Antitumor activity against human HCT116 cells xenografted in nude BALB/c mouse assessed as tumor growth inhibition at 20 mg/kg, ip administered every other day for 21 days relative to control; type: functional; details: HCT-116, ip, 504 h, read-out: TGI
HeLa [8] = experiment: Antitumor activity against human HeLa cells xenografted in nude BALB/c mouse assessed as tumor growth inhibition at 10 mg/kg, ip administered every other day for 21 days and observed for 6 days before sacrifice relative to control; type: functional; details: read-out: TGI
HeLa [9] = experiment: Antitumor activity against human HeLa cells xenografted in nude BALB/c mouse assessed as suppression of excised tumor size at 20 mg/kg, ip administered every other day for 21 days and observed for 6 days before sacrifice relative to control; type: functional
HCT-116 [10] = experiment: Induction of cellular senescence in human HCT116 cells at 0.22 uM after 48 hrs by SA-beta-gal-staining based assay; type: functional, cell-based
HCT-116 [11] = experiment: Induction of cellular senescence in human HCT116 cells assessed as up-regulation of p16 protein expression at 0.05 to 0.2 ug/ml after 48 hrs by Western blot analysis; type: functional, cell-based
HCT-116 [12] = experiment: Antitumor activity against human HCT116 cells xenografted in nude BALB/c mouse assessed as tumor growth inhibition at 10 mg/kg, ip administered daily for 21 days relative to control; type: functional; details: HCT-116, ip, 504 h, read-out: TGI
HCT-116 [13] = experiment: Induction of cellular senescence in human HCT116 cells assessed as up-regulation of TP53 gene at 0.22 uM after 48 hrs by qPCR assay; type: functional, cell-based
Mus musculus [14] = experiment: Induction of cellular senescence in BALB/c mouse xenografted with human HCT116 cells assessed as up-regulation of p21 protein expression at 20 mg/kg, administered every other day for 3 weeks by immunohistochemical analysis; type: functional, organism-based
HCT-116 [15] = experiment: Induction of cellular senescence in human HCT116 cells assessed as up-regulation of p21 protein expression at 0.05 to 0.2 ug/ml after 48 hrs by Western blot analysis; type: functional, cell-based
Mus musculus [16] = experiment: Induction of cellular senescence in BALB/c mouse xenografted with human HCT116 cells assessed as up-regulation of p16 protein expression at 20 mg/kg, administered every other day for 3 weeks by immunohistochemical analysis; type: functional, organism-based
[17] = Toxicity in nude BALB/c mouse xenografted with human HCT116 cells assessed as body weight loss at 10 mg/kg, ip administered daily for 3 weeks; type: organism-based; details: in vivo, 504 h
Mus musculus [18] = experiment: Effect on p27 protein expression in BALB/c mouse xenografted with human HCT116 cells at 20 mg/kg, administered every other day for 3 weeks by immunohistochemical analysis; type: functional, organism-based
[19] = Toxicity in nude BALB/c mouse xenografted with human HeLa cells assessed as body weight loss at 20 mg/kg, administered every other day for 21 days; type: organism-based; details: in vivo, 504 h
A-375 [20] = experiment: Antitumor activity against human A375 cells xenografted in nude BALB/c mouse assessed as tumor growth inhibition at 15 mg/kg, ip administered every other day for 23 days relative to control; type: functional; details: A-375, ip, 552 h, read-out: TGI
HCT-116 [21] = experiment: Cytotoxicity against human HCT116 cells assessed as cell growth inhibition after 24 hrs by sulforhodamine B assay; type: functional, cell-based; details: HCT-116, 24 h
HeLa [22] = experiment: Antitumor activity against human HeLa cells xenografted in nude BALB/c mouse assessed as suppression of excised tumor size at 10 mg/kg, ip administered every other day for 21 days and observed for 6 days before sacrifice relative to control; type: functional
A-375 [23] = experiment: Antitumor activity against human A375 cells xenografted in nude BALB/c mouse assessed as tumor growth inhibition at 7.5 mg/kg, ip administered every other day for 23 days relative to control; type: functional; details: A-375, ip, 552 h, read-out: TGI
HCT-116 [24] = experiment: Antitumor activity against human HCT116 cells xenografted in nude BALB/c mouse assessed as tumor growth inhibition at 20 mg/kg, ip administered daily for 21 days relative to control; type: functional; details: HCT-116, ip, 504 h, read-out: TGI
A-375 [25] = experiment: Antitumor activity against human A375 cells xenografted in nude BALB/c mouse assessed as suppression of tumor volume at 7.5 mg/kg, ip administered every other day for 23 days relative to control; type: functional; details: A-375, ip, 552 h, read-out: TGI
HeLa [26] = experiment: Antitumor activity against human HeLa cells xenografted in nude BALB/c mouse assessed as tumor growth inhibition at 30 mg/kg, ip administered every other day for 21 days and observed for 6 days before sacrifice relative to control; type: functional; details: read-out: TGI
HCT-116 [27] = experiment: Cytotoxicity against human HCT116 cells assessed as cell growth inhibition after 48 hrs by sulforhodamine B assay; type: functional, cell-based; details: HCT-116, 48 h
[28] = Toxicity in nude BALB/c mouse xenografted with human HCT116 cells assessed as body weight loss at 30 mg/kg, ip administered daily for 3 weeks; type: organism-based; details: in vivo, 504 h
HeLa [29] = experiment: Antitumor activity against human HeLa cells xenografted in nude BALB/c mouse assessed as tumor growth inhibition at 20 mg/kg, ip administered every other day for 21 days and observed for 6 days before sacrifice relative to control; type: functional; details: read-out: TGI
HCT-116 [30] = experiment: Antiproliferative activity against human HCT116 cells assessed as inhibition of colony formation at 1.77 uM after 14 days by crystal violet-staining based assay; type: functional, cell-based
[31] = Toxicity in nude BALB/c mouse xenografted with human HCT116 cells assessed as body weight loss at 40 mg/kg, administered every other day for 21 days; type: organism-based; details: in vivo, 504 h
[32] = Toxicity in nude BALB/c mouse xenografted with human HeLa cells assessed as body weight loss at 30 mg/kg, administered every other day for 21 days; type: organism-based; details: in vivo, 504 h
A-375 [33] = experiment: Antitumor activity against human A375 cells xenografted in nude BALB/c mouse assessed as suppression of tumor volume at 15 mg/kg, ip administered every other day for 23 days relative to control; type: functional; details: A-375, ip, 552 h, read-out: TGI
HCT-116 [34] = experiment: Induction of apoptosis in human HCT116 cells assessed as early apoptotic cells at 5.86 nM after 48 hrs by annexin V/propidium iodide-double staining based flow cytometry (reference value: 4.8%); type: functional
HCT-116 [35] = experiment: Antitumor activity against human HCT116 cells xenografted in nude BALB/c mouse assessed as tumor growth inhibition at 10 mg/kg, ip administered twice a week for 3 weeks relative to control; type: functional; details: HCT-116, ip, 504 h, read-out: TGI
HCT-116 [36] = experiment: Induction of apoptosis in human HCT116 cells assessed as late apoptotic cells at 5.86 nM after 48 hrs by annexin V/propidium iodide-double staining based flow cytometry (reference value: 4.6%); type: functional
[37] = Toxicity in BALB/c mouse assessed as mortality at 2.5 mg/kg, ip administered daily for 28 days; type: organism-based; details: in vivo, read-out: Activity
[38] = Toxicity in human HCT116 cells xenografted nude BALB/c mouse assessed as tumor growth inhibition at 7.5 mg/kg, ip administered daily for 11 days; type: organism-based; details: in vivo, 264 h
HCT-116 [39] = experiment: Antitumor activity against human HCT116 cells xenografted in nude BALB/c mouse assessed as reduction in volume of growing subcutaneous tumor at 10 mg/kg, ip administered twice a week for 3 weeks; type: functional, organism-based
[40] = Toxicity in nude BALB/c mouse xenografted with human A375 cells assessed as body weight loss at 10 mg/kg, ip measured on day 17 and 21; type: organism-based; details: in vivo
A-375 [41] = experiment: Cytotoxicity against human A375 cells assessed as cell growth inhibition after 48 hrs by sulforhodamine B assay; type: functional, cell-based; details: A-375, 48 h
A2780 = experiment: Growth inhibition human A2780 cells after 72 hrs by MTS assay; type: functional, cell-based; details: A2780, 72 h
HCT-116 [42] = experiment: Induction of apoptosis in human HCT116 cells assessed as viable cells at 5.86 nM after 48 hrs by annexin V/propidium iodide-double staining based flow cytometry (reference value: 88.3%); type: functional; details: HCT-116, 48 h, read-out: Activity
[43] = Toxicity in BALB/c mouse assessed as mortality at 5 mg/kg, ip dosed daily and measured on day 25; type: organism-based; details: in vivo
HCT-116 [44] = experiment: Induction of apoptosis in human HCT116 cells assessed as necrotic cells at 5.86 nM after 48 hrs by annexin V/propidium iodide-double staining based flow cytometry (reference value: […]); type: functional

With `CC(C)=CCC/C(C)=C/[C@H]1OC(=O)C[C@]12C[C@H](OC(=O)c1ccc(N(C)C)cc1)C=CC2=O` the Activity (HeLa [1]) was 76.9%, the Activity (HCT-116 [2]) was “inactive” and the Activity (HCT-116 [3]) was “Active”. For the same molecule, the “growth inhibition (GI)” value (HT-29) was “Active”, the Activity [4] was 1.5 g and the Activity (HCT-116 [5]) was “Active”. The Activity [6] was “Toxic”, the inhibition in vivo at 20 mg/kg (HCT-116 [7]) was 40 to 48.3% and the inhibition in vivo at 10 mg/kg (HeLa [8]) was 17.2%. The Activity (HeLa [9]) was 55.4%, the Activity (HCT-116 [10]) was “Active” and the Activity (HCT-116 [11]) was “Active”. The inhibition in vivo at 10 mg/kg (HCT-116 [12]) was 51%, the Activity (HCT-116 [13]) was “Active” and the Activity (Mus musculus [14]) was “Active”. The Activity (HCT-116 [15]) was “Active”, the Activity (Mus musculus [16]) was “Active” and the Activity [17] was “Non-Toxic”. For the same molecule, the Activity (Mus musculus [18]) was “inactive”, the Activity [19] was 0.9 g and the inhibition in vivo at 15 mg/kg (A-375 [20]) was 19.4%. It also gave a pIC50 (HCT-116 [21]) of 5.59, an Activity (HeLa [22]) of 29.6% and an inhibition in vivo at 7.5 mg/kg (A-375 [23]) of 20.6%. The inhibition in vivo at 20 mg/kg (HCT-116 [24]) was 57.1%, the inhibition in vivo at 7.5 mg/kg (A-375 [25]) was 39.6% and the inhibition in vivo at 30 mg/kg (HeLa [26]) was 75.9%. For the same molecule, the pIC50 (HCT-116 [27]) was 5.77, the Activity [28] was 2 g and the inhibition in vivo at 20 mg/kg (HeLa [29]) was 54.7%. The Activity (HCT-116 [30]) was “Active”, the Activity [31] was “Non-Toxic” and the Activity [32] was 2.2 g. The inhibition in vivo at 15 mg/kg (A-375 [33]) was 39.4%.
With `CC(=O)O[C@H]1C(=O)[C@@]2(C)[C@H]([C@H](OC(=O)c3ccccc3)[C@]3(O)C[C@H](OC(=O)[C@H](O)[C@@H](NC(=O)c4ccccc4)c4ccccc4)C(C)=C1C3(C)C)[C@]1(OC(C)=O)CO[C@@H]1C[C@@H]2O` [PACLITAXEL] the Activity (HCT-116 [34]) was 14.1%, the inhibition in vivo at 10 mg/kg (HCT-116 [35]) was 52.6% and the Activity (HCT-116 [36]) was 9.4%. For the same molecule, the inhibition in vivo at 10 mg/kg (HeLa [8]) was 46.5%, the mortality at 672 h [37] was 30% and the Activity [38] was “Toxic”. For the same molecule, the Activity (HCT-116 [39]) was “Active”, the Activity (HeLa [22]) was 48.9% and the Activity [40] was “Toxic”. It also gave a pIC50 (A-375 [41]) of 8.70, a pIC50 (A2780) of 8.82 and a viability at 0.00586 µM (HCT-116 [42]) of 67.3%. The Activity [43] was “Toxic” and the Activity (HCT-116 [44]) was 9.2%.
